The values that follow come from patent US9469645B2, “Compounds and compositions for the treatment of parasitic diseases” (Novartis AG, priority 2009, dated 2016).

One test has as its system 3D7 P. falciparum strain. The test can be described thus: parasite proliferation assay in infected red blood cells (SYBR Green I). Type of test: cell-based, Plasmodium falciparum. Particulars: Plasmodium falciparum, 3D7, Erythrocyte, 3D7 strain; read-out: EC50 3D7 strain. Put shortly:
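P. falciparum 3D7 grown in O+ human erythrocytes to 3–8% parasitemia and exposed to compounds. Proliferation read as the increase in parasite DNA. Detection used SYBR Green I in saponin/triton-X/EDTA lysis buffer, with overnight lysis at room temperature.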

A further test has as its system W2 strain. The test can be described thus: parasite proliferation assay in infected red blood cells (SYBR Green I), W2 strain. The class given is cell-based, Plasmodium falciparum. Particulars: Plasmodium falciparum, Erythrocyte. The text has this: Compounds of the invention can be assayed to measure their capacity to inhibit proliferation of parasitemia in infected red blood cells. The proliferation is quantified by the addition of SYBR Green I (INVITROGEN)® dye which has a high affinity for double stranded DNA.

On to `CC1(C)NCCn2c1nc(-c1ccc(F)cc1)c2Nc1ccc(F)c(C#N)c1` [Compound 524], for which the EC50 (as a rule, the concentration giving half of the maximal effect) is 40 nM with 3D7 P. falciparum strain and 57 nM in the test with W2 strain.
With `Cc1cc(Nc2c(-c3ccc(F)cc3)nc3n2CC(=O)NC3(C)C)nn1C` [Compound 560], the figures for the EC50 with 3D7 P. falciparum strain and in the test on W2 strain were 3610 nM and 5220 nM, respectively.
For `CC1(C)NCCn2c1nc(-c1ccc(F)cc1)c2Nc1ccc(Cl)cc1` [Compound 416], the EC50 came to 10 nM with 3D7 P. falciparum strain and 16 nM with W2 strain.
For `CC(C)[C@@H](O)C(=O)N1CCn2c(nc(-c3ccc(F)cc3)c2Nc2ccc(F)cc2)C1` [Compound 471], the EC50 in the test on 3D7 P. falciparum strain and in the test on W2 strain was 30 nM in each case.
Regarding `CC1(C)NC(=O)Cn2c1nc(-c1ccc(F)cc1)c2Nc1ccc(Cl)c(Cl)c1` [Compound 506], the values for the EC50 in the test on 3D7 P. falciparum strain and with W2 strain were 190 nM and 198 nM, respectively.
With `CCN(c1ccc(Cl)c(F)c1)c1c(-c2ccc(F)cc2)nc2n1CCNC2` [Compound 413], the figures for the EC50 with 3D7 P. falciparum strain and with W2 strain were 180 nM and 131 nM, respectively.
The corresponding values for `CC1(C)Cn2c(nc(-c3ccc(F)cc3)c2Nc2ccc(C#N)c(F)c2)CN1` [Compound 581] are 650 nM and 668 nM.
Take `CC(C)(C)[C@H](N)C(=O)N1CCn2c(nc(-c3ccc(F)cc3)c2Nc2ccc(F)cc2)C1` [Compound 478]: the EC50 with 3D7 P. falciparum strain was 60 nM; in the test on W2 strain it was 39 nM.
For the compound `Cc1ccc(Nc2c(-c3ccc(F)c(C)c3)nc3n2CCN(C(=O)CN)C3)cc1` [Compound 517], the EC50 came to 50 nM in the test on 3D7 P. falciparum strain and 51 nM in the test on W2 strain.
As to `Cc1cc(Nc2c(-c3ccc(F)cc3)nc3n2CCN(C(=O)C(C)(C)N)C3(C)C)ccc1Cl` [Compound 589], the EC50 in the test with 3D7 P. falciparum strain is 10 nM; in the test with W2 strain, 6 nM.
`CC(C)C[C@H](N)C(=O)N1CCn2c(nc(-c3ccc(F)cc3)c2Nc2ccc(Cl)cc2)C1` [Compound 453]: the results for the EC50 in the test on 3D7 P. falciparum strain and with W2 strain were 20 nM and 21 nM, respectively.
Taken in the same sequence, the figures for `CC1(C)Cn2c(nc(-c3ccc(F)cc3)c2Nc2ccc(F)cc2)CN1` [Compound 579] were 180 nM and 146 nM.
Turning to `Cc1ccc(Nc2c(-c3ccc(Cl)c(F)c3)nc3n2CCN(C(=O)C(C)(C)N)C3)cc1` [Compound 521], the values for the EC50 in the test on 3D7 P. falciparum strain and with W2 strain were 5000 nM and 3030 nM, respectively.
For the compound `CC1(C)NCCn2c1nc(-c1ccc(F)cc1)c2Nc1cccc(F)c1` [Compound 514], the EC50 was found to be 30 nM in the test on 3D7 P. falciparum strain and 24 nM in the test on W2 strain.
The corresponding values for `CC(C)(N)C(=O)N1CCn2c(nc(-c3ccc(F)cc3)c2Nc2ccc(F)cc2)C1(C)C` [Compound 583] are 10 nM and 9 nM.
For the compound `C[C@H]1c2nc(-c3ccc(F)cc3)c(Nc3ccc(Cl)c(F)c3)n2CCN1C(=O)CN` [Compound 597], the 50% effective concentration (EC50) with 3D7 P. falciparum strain is 30 nM; in the test with W2 strain, 24 nM.
`CC1(C)Cn2c(nc(-c3ccc(F)cc3)c2Nc2ccc(F)cc2)CN1C(=O)CN` [Compound 574]: the EC50 in the test on 3D7 P. falciparum strain amounted to 80 nM; in the test with W2 strain, 111 nM.
In the case of `Cc1ccc(Nc2c(-c3ccc(Cl)c(F)c3)nc3n2CCNC3)cc1` [Compound 498], the EC50 in the test on 3D7 P. falciparum strain was found to be 6340 nM; in the test with W2 strain, 6740 nM.
`Cc1ccc(Nc2c(-c3ccc(F)cc3)nc3n2CCN(C(=O)[C@@H](N)C2CC2)C3)cc1` [Compound 404]: the EC50 with 3D7 P. falciparum strain came out at 20 nM; in the test with W2 strain it was 12 nM.
As for `N[C@H](C(=O)N1CCn2c(nc(-c3ccc(F)cc3)c2Nc2ccc(F)cc2)C1)C1CC1` [Compound 465], the EC50 was 1.9 nM in the test on 3D7 P. falciparum strain and 2 nM in the test on W2 strain.
For the compound `Cc1ccc(Nc2c(-c3ccc(F)cc3)nc3n2CCN(C(=O)CN)C3(C)C)cc1F` [Compound 533], the EC50 in the test with 3D7 P. falciparum strain was found to be 30 nM; in the test with W2 strain it was 22 nM.
The corresponding values for `Cc1ccc(Nc2c(-c3ccc(F)cc3)nc3n2CCNC3(C)C)cc1` [Compound 415] are 10 nM and 13 nM.
The corresponding values for `Cc1ccc(Nc2c(-c3ccc(F)c(C)c3)nc3n2CCNC3)cc1` [Compound 494] are 2820 nM and 2140 nM.
Take `Cc1ccc(Nc2c(-c3ccc(F)cc3)nc3n2CCN(C(=O)CN)C3(C)C)cc1Cl` [Compound 532]: the EC50 is 20 nM in the test with 3D7 P. falciparum strain and 9 nM with W2 strain.
For the compound `C[C@H]1NC(=O)Cn2c1nc(-c1ccc(F)cc1)c2Nc1ccc(Cl)c(F)c1` [Compound 564], the results for the EC50 in the test with 3D7 P. falciparum strain and in the test with W2 strain were 250 nM and 359 nM, respectively.
For `CC(C)(C)OC(=O)NCC(=O)N1CCn2cc(-c3ccc(F)cc3)nc2C1` [Compound 540, tert-butyl 2-(2-(4-fluorophenyl)-5,6-dihydroimidazo[1,2-a]pyrazin-7(8H)-yl)-2-oxoethylcarbamate], the EC50 with 3D7 P. falciparum strain worked out at 8420 nM; in the test on W2 strain, 9810 nM.
`CN1CCN(Cc2cccc(Nc3c(-c4ccc(F)cc4)nc4n3CC(=O)NC4(C)C)c2)CC1` [Compound 569]: the EC50 in the test with 3D7 P. falciparum strain amounted to 9270 nM; in the test with W2 strain it was 7920 nM.
As to `N[C@H](C(=O)N1CCn2c(nc(-c3ccc(F)cc3)c2Nc2ccc(F)cc2)C1)c1ccc(F)cc1` [Compound 472], the EC50 in the test on 3D7 P. falciparum strain was found to be 50 nM; in the test on W2 strain it was 37 nM.
The corresponding values for `N[C@@H](Cc1cscn1)C(=O)N1CCn2c(nc(-c3ccc(F)cc3)c2Nc2ccc(F)c(F)c2)C1` [Compound 431] are 70 nM and 80 nM.
As to `Cc1cc(Nc2c(-c3ccc(F)cc3)nc3n2CCN(C(=O)CN)C3(C)C)ccc1Cl` [Compound 496], the EC50 in the test on 3D7 P. falciparum strain came to 30 nM; in the test with W2 strain it was 8 nM.
With `Cc1ccc(Nc2c(-c3ccc(F)cc3)nc3n2CCN(C(=O)CN)C3(C)C)cc1C#N` [Compound 525], the EC50 in the test on 3D7 P. falciparum strain was determined as 10 nM; in the test with W2 strain it was 13 nM.
With `CC(C)N(c1ccc(Cl)c(F)c1)c1c(-c2ccc(F)cc2)nc2n1CCNC2` [Compound 444], the EC50 with 3D7 P. falciparum strain was determined as 7220 nM; in the test with W2 strain, 5960 nM.
Take `N[C@@H](Cc1ccc(F)c(F)c1)C(=O)N1CCn2c(nc(-c3ccc(F)cc3)c2Nc2ccc(F)c(F)c2)C1` [Compound 433]: the figures for the EC50 with 3D7 P. falciparum strain and in the test on W2 strain were 40 nM and 49 nM, respectively.
Taken in the same sequence, the figures for `Cc1cc(Nc2c(-c3ccc(F)cc3)nc3n2CC(=O)NC3(C)C)ccc1F` [Compound 544] were 20 nM and 37 nM.
As to `Cc1cc(Nc2c(-c3ccc(F)cc3)nc3n2CCN(C(=O)CN)C3(C)C)ccc1F` [Compound 495], the EC50 in the test with 3D7 P. falciparum strain was found to be 90 nM; with W2 strain, 39 nM.
In the case of `Cc1ccc(Nc2c(-c3ccc(F)cc3)nc3n2CCN(C(=O)CNC(C)(C)C)C3)cc1` [Compound 399], the results for the EC50 with 3D7 P. falciparum strain and in the test on W2 strain were 220 nM and 196 nM, respectively.
Regarding `COc1ccc(CN2Cc3nc(-c4cccc(F)c4)c(Nc4ccc(C)cc4)n3C(C)(C)C2)cc1` [Compound 582], the figures for the EC50 in the test on 3D7 P. falciparum strain and in the test on W2 strain were 5560 nM and 5920 nM, respectively.
Regarding `CC1(C)NC(=O)Cn2c1nc(-c1ccc(F)cc1)c2Nc1ccc(Cl)cc1` [Compound 508], the EC50 was 130 nM in the test on 3D7 P. falciparum strain and 126 nM in the test with W2 strain.
The corresponding values for `CC1(C)NCCn2c1nc(-c1ccc(F)cc1)c2Nc1ccc(F)c(Cl)c1` [Compound 424] are 20 nM and 30 nM.
The corresponding values for `Cc1ccc(Nc2c(-c3ccc(F)cc3)nc3n2CCN(C(=O)[C@@H](N)CC2CC2)C3)cc1` [Compound 401] are 20 nM and 12 nM.
Consider `C[C@@H]1NC(=O)Cn2c1nc(-c1ccc(F)cc1)c2Nc1ccc(Cl)cc1` [Compound 563], for which the EC50 in the test on 3D7 P. falciparum strain was found to be 310 nM; with W2 strain, 445 nM.
As to `CC1(C)c2nc(-c3ccc(F)cc3)c(Nc3cccc(F)c3)n2CCN1C(=O)C(F)(F)F` [Compound 516], the EC50 in the test on 3D7 P. falciparum strain came out at 30 nM; in the test on W2 strain it was 26 nM.
For `N[C@@H](Cc1cscn1)C(=O)N1CCn2c(nc(-c3ccc(F)cc3)c2Nc2ccc(F)cc2)C1` [Compound 476], the values for the EC50 with 3D7 P. falciparum strain and in the test with W2 strain were 40 nM and 27 nM, respectively.
Taken in the same sequence, the figures for `N[C@@H](Cc1ccc(F)c(F)c1)C(=O)N1CCn2c(nc(-c3ccc(F)cc3)c2Nc2ccc(Cl)cc2)C1` [Compound 460] were 40 nM and 33 nM.
Taken in the same sequence, the figures for `CC1(C)NCCn2c1nc(-c1ccc(F)cc1)c2Nc1ccc(F)cc1` [Compound 493] were 4 nM and 5 nM.
Taken in the same sequence, the figures for `Cc1cccc(Nc2c(-c3ccc(F)cc3)nc3n2CCN(C(=O)CN)C3(C)C)c1` [Compound 499] were 10 nM and 6 nM.
As for `N[C@H](C(=O)N1CCn2c(nc(-c3ccc(F)cc3)c2Nc2ccc(Cl)cc2)C1)c1ccc(F)cc1` [Compound 457], the EC50 is 20 nM in the test with 3D7 P. falciparum strain and 11 nM with W2 strain.
On to `CC1(C)Cn2c(nc(-c3ccc(F)cc3)c2Nc2ccc(Cl)cc2)CN1C(=O)CN` [Compound 557], for which the EC50 in the test on 3D7 P. falciparum strain and in the test on W2 strain was 20 nM in each case.
As for `N[C@@H](CC1CCC1)C(=O)N1CCn2c(nc(-c3ccc(F)cc3)c2Nc2ccc(F)cc2)C1` [Compound 467], the results for the EC50 in the test on 3D7 P. falciparum strain and in the test on W2 strain were 20 nM and 16 nM, respectively.
Take `CC1(C)c2nc(-c3ccc(F)cc3)c(Nc3ccc(Cl)cc3)n2CCN1C(=O)CN` [Compound 417, 2-amino-1-(3-(4-chlorophenylamino)-2-(4-fluorophenyl)-8,8-dimethyl-5,6-dihydroimidazo[1,2-a]pyrazin-7(8H)-yl)ethanone]: the EC50 came to 10 nM in the test on 3D7 P. falciparum strain and 6 nM in the test on W2 strain.
`Cc1ccc(Nc2c(-c3ccc(F)c(Cl)c3)nc3n2CCNC3)cc1` [Compound 497]: the values for the EC50 in the test on 3D7 P. falciparum strain and with W2 strain were 8000 nM and 5820 nM, respectively.
Taken in the same sequence, the figures for `Cc1ccc(Nc2c(-c3ccc(F)cc3)nc3n2CCN(C(=O)[C@@H](N)c2ccc(F)cc2)C3)cc1` [Compound 482] were 20 nM and 9 nM.
